From patent EP2970215B1, “PYRROLIDINE DERIVATIVES, PHARMACEUTICAL COMPOSITIONS CONTAINING THEM, AND THEIR USE IN THERAPY” (AbbVie Deutschland GmbH & Co. KG, priority 2013, dated 2014)

target: T1, human GlyT1c transporter (Homo sapiens, UniProt P48067); assay: Radioligand binding assay using recombinant CHO cell membranes expressing human GlyT1; conditions: radioligand binding to human GlyT1c transporter-expressing membranes
T1 construct: expressed in transfected cells; host or cells: CHO cells (recombinant; line hGlyT1c_5_CHO is named for the uptake assay)
T1 sequence (P48067 1-706): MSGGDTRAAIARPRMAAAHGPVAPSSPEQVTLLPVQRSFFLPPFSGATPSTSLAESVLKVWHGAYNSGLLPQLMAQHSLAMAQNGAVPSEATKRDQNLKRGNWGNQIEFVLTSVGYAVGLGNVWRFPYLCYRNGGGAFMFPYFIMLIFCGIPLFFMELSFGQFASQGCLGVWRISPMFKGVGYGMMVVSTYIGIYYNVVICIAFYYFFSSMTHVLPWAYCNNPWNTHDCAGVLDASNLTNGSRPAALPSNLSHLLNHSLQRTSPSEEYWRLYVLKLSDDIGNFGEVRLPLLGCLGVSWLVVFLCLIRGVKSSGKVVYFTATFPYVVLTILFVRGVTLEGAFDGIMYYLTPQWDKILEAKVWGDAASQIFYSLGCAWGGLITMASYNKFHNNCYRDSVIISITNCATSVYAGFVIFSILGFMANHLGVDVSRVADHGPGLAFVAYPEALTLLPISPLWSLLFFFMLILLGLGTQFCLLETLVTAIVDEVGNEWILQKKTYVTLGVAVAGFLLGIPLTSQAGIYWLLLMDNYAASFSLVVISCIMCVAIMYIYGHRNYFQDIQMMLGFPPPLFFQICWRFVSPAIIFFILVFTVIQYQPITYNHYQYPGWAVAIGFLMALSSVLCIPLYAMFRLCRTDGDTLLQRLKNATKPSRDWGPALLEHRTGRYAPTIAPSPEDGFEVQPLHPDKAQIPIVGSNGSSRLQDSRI
From the text: 2. Radioligand binding assays using recombinant CHO cell membranes expressing human GlyT1: […]

Ki | SMILES
≤ 1 µM | Cn1cnc(S(=O)(=O)N2C[C@@H](Nc3cccc(C(F)(F)F)c3)[C@H](C3CCCOC3)C2)c1 (relative stereo) [Example 782, trans-1-[(1-methyl-1H-imidazol-4-yl)sulfonyl]-4-(tetrahydro-2H-pyran-3-yl)-N-[3-(trifluoromethyl)phenyl]pyrrolidin-3-amine]
≤ 1 µM | Cn1cnc(S(=O)(=O)N2C[C@@H](Nc3cccc(Cl)c3)[C@H](C3CCCOC3)C2)c1 (relative stereo) [Example 783, trans -N-(3-chlorophenyl)-1-[(1-methyl-1H-imidazol-4-yl)sulfonyl] -4-(tetrahydro-2H-pyran-3 - yl)pyrrolidin-3-amine]
≤ 10 µM | Cn1cnc(S(=O)(=O)N2C[C@@H]([C@@H]3CCCOC3)[C@H](Nc3ccc(Cl)c(C(F)(F)F)c3)C2)c1 (relative stereo) [Example 792, Trans-N-[4-chloro-3-(trifluoromethyl)phenyl]-1-[(1-methyl-1H-imidazol-4-yl)sulfonyl]-4-[(3S)-tetrahydro-2H-pyran-3-yl]pyrrolidin-3-amine]
≤ 10 µM | Cn1cnc(S(=O)(=O)N2C[C@@H]([C@@H]3CCCOC3)[C@H](Nc3ccc(Cl)c(OC(F)(F)F)c3)C2)c1 (relative stereo) [Example 793, Trans-N-[4-chloro-3-(trifluoromethoxy)phenyl]-1-[(1-methyl-1H-imidazol-4-yl)sulfonyl]-4-[(3S)-tetrahydro-2H-pyran-3-yl]pyrrolidin-3-amine]
≤ 0.1 µM | Cn1cnc(S(=O)(=O)N2C[C@@H](Nc3cccc(C(F)(F)F)c3)[C@H](c3ncccc3F)C2)c1 (relative stereo) [Example 798, Trans-4-(3-fluoropyridin-2-yl)-1-[(1-methyl-1H-imidazol-4-yl)sulfonyl]-N-[3-(trifluoromethyl)phenyl]pyrrolidin-3-amine]
≤ 0.1 µM | Cn1cnc(S(=O)(=O)N2C[C@@H](Nc3cccc(OC(F)(F)F)c3)[C@H](c3ncccc3F)C2)c1 (relative stereo) [Example 799, Trans-4-(3-fluoropyridin-2-yl)-1-[(1-methyl-1H-imidazol-4-yl)sulfonyl]-N-[3-(trifluoromethoxy)phenyl]pyrrolidin-3-amine]
≤ 0.01 µM | Cn1cnc(S(=O)(=O)N2C[C@@H](Nc3cccc(OCC(F)(F)F)c3)[C@H](c3ncccc3F)C2)c1 (relative stereo) [Example 800, Trans-4-(3-fluoropyridin-2-yl)-1-[(1-methyl-1H-imidazol-4-yl)sulfonyl]-N-[3-(2,2,2-trifluoroethoxy)phenyl]pyrrolidin-3-amine]
≤ 1 µM | Cn1cnc(S(=O)(=O)N2C[C@@H](Nc3cccc(F)c3)[C@H](c3ncccc3F)C2)c1 (relative stereo) [Example 805, Trans-N-(3-fluorophenyl)-4-(3-fluoropyridin-2-yl)-1-[(1-methyl-1H-imidazol-4-yl)sulfonyl]pyrrolidin-3-amine]
≤ 0.1 µM | CCCCCCN[C@@H]1CN(S(=O)(=O)c2cn(C)nn2)C[C@H]1c1ncccc1F (relative stereo) [Example 811, Trans-4-(3-fluoropyridin-2-yl)-N-hexyl-1-[(1-methyl-1H-1,2,3-triazol-4-yl)sulfonyl]pyrrolidin-3-amine]

same assay, conditions: radioligand binding, recombinant CHO cell membranes expressing human GlyT1c

Ki | SMILES
≤ 1 µM | Cn1cnc(S(=O)(=O)N2C[C@@H](OCCNCC(F)(F)F)[C@H](c3ccc(F)cc3)C2)c1 (relative stereo) [Example 814, 2,2,2-trifluoro-N-[2-({trans-4-(4-fluorophenyl)-1-[(1-methyl-1H-imidazol-4-yl)sulfonyl]pyrrolidin-3-yl}oxy)ethyl]ethanamine]
≤ 0.1 µM | Cn1cnc(S(=O)(=O)N2C[C@@H](Nc3ccc(F)c(Cl)c3)[C@H](C3CCCCO3)C2)c1 (relative stereo) [Example 815, Trans-N-(3-chloro-4-fluorophenyl)-1-[(1-methyl-1H-imidazol-4-yl)sulfonyl]-4-(tetrahydro-2H-pyran-2-yl)pyrrolidin-3-amine]
≤ 0.01 µM | Cn1cnc(S(=O)(=O)N2C[C@@H](Nc3cccc(OCC(F)(F)F)c3)[C@H](C3CCCCO3)C2)c1 (relative stereo) [Example 816, Trans-1-[(1-methyl-1H-imidazol-4-yl)sulfonyl]-4-(tetrahydro-2H-pyran-2-yl)-N-[3-(2,2,2-trifluoroethoxy)phenyl]pyrrolidin-3-amine]
≤ 0.01 µM | Cn1cc(S(=O)(=O)N2C[C@@H](NCc3ccc(C(F)(F)F)cc3Cl)[C@H](c3ncccc3F)C2)nn1 (relative stereo) [Example 818, Trans-N-[2-chloro-4-(trifluoromethyl)benzyl]-4-(3-fluoropyridin-2-yl)-1-[(1-methyl-1H-1,2,3-triazol-4-yl)sulfonyl]pyrrolidin-3-amine]
≤ 0.1 µM | Cn1cnc(S(=O)(=O)N2C[C@@H](Nc3cccc(OCC(F)(F)F)c3)[C@H](C3CCCO3)C2)c1 (relative stereo) [Example 819, Trans-1-[(1-methyl-1H-imidazol-4-yl)sulfonyl]-4-(tetrahydrofuran-2-yl)-N-[3-(2,2,2-trifluoroethoxy)phenyl]pyrrolidin-3-amine]
≤ 1 µM | Cn1cnc(S(=O)(=O)N2C[C@@H](Nc3ccc(F)c(Cl)c3)[C@H](C3CCCO3)C2)c1 (relative stereo) [Example 824, Trans-N-(3-chloro-4-fluorophenyl)-1-[(1-methyl-1H-imidazol-4-yl)sulfonyl]-4-(tetrahydrofuran-2-yl)pyrrolidin-3-amine]
≤ 1 µM | Cn1cnc(S(=O)(=O)N2C[C@@H](Nc3cccc(C(F)(F)F)c3)[C@H](C3CCOC3)C2)c1 (relative stereo) [Example 827, trans-1-[(1-methyl-1H-imidazol-4-yl)sulfonyl]-4-(tetrahydrofuran-3-yl)-N-[3 - (trifluoromethyl)phenyl]pyrrolidin-3-amine]
≤ 10 µM | Cc1cccc(N[C@@H]2CN(S(=O)(=O)c3cn(C)cn3)C[C@H]2C2CCOC2)c1 (relative stereo) [Example 828, trans-1-[(1-methyl-1H-imidazol-4-yl)sulfonyl]-N-(3-methylphenyl)-4-(tetrahydrofuran-3-yl)pyrrolidin-3-amine]
≤ 10 µM | Cn1cnc(S(=O)(=O)N2C[C@@H](Nc3cccc(Cl)c3)[C@H](C3CCOC3)C2)c1 (relative stereo) [Example 829, trans-N-(3-chlorophenyl)-1-[(1-methyl-1H-imidazol-4-yl)sulfonyl]-4-(tetrahydrofuran-3-yl)pyrrolidin-3-amine]
≤ 10 µM | Cn1cnc(S(=O)(=O)N2C[C@@H](Nc3ccc(F)c(Cl)c3)[C@H](C3CCOC3)C2)c1 (relative stereo) [Example 830, trans -N-(3-chloro-4-fluorophenyl)-1-[(1-methyl-1H-imidazol-4-yl)sulfonyl] -4-(tetrahydrofuran-3 - yl)pyrrolidin-3-amine]
≤ 1 µM | Cn1cnc(S(=O)(=O)N2C[C@@H](Nc3ccc(F)c(OC(F)(F)F)c3)[C@H](C3CCOC3)C2)c1 (relative stereo) [Example 831, trans -N-[4-fluoro-3-(trifluoromethoxy)phenyl]-1-[(1-methyl-1 H-imidazol-4-yl)sulfonyl] -4-(tetrahydrofuran-3-yl)pyrrolidin-3-amine]
≤ 1 µM | Cn1cnc(S(=O)(=O)N2C[C@@H](Nc3ccc(F)c(C(F)(F)F)c3)[C@H](C3CCOC3)C2)c1 (relative stereo) [Example 832, trans-N-[4-fluoro-3-(trifluoromethyl)phenyl]-1-[(1-methyl-1H-imidazol-4-yl)sulfonyl]-4-(tetrahydrofuran-3-yl)pyrrolidin-3-amine]
≤ 10 µM | Cn1cnc(S(=O)(=O)N2C[C@@H](Nc3ccc(Cl)c(C(F)(F)F)c3)[C@H](C3CCOC3)C2)c1 (relative stereo) [Example 833, trans-N-[4-chloro-3-(trifluoromethyl)phenyl]-1-[(1-methyl-1H-imidazol-4-yl)sulfonyl]-4-(tetrahydrofuran-3-yl)pyrrolidin-3-amine]
≤ 1 µM | Cn1cnc(S(=O)(=O)N2C[C@@H](Nc3cccc(OCC(F)(F)F)c3)[C@H](C3CCOC3)C2)c1 (relative stereo) [Example 834, trans-1-[(1-methyl-1H-imidazol-4-yl)sulfonyl]-4-(tetrahydrofuran-3-yl)-N-[3-(2,2,2-trifluoroethoxy)phenyl]pyrrolidin-3-amine]
≤ 1 µM | Cn1cnc(S(=O)(=O)N2C[C@@H](Nc3cccc(OC(F)(F)F)c3)[C@H](C3CCOC3)C2)c1 (relative stereo) [Example 835, trans-1-[(1-methyl-1H-imidazol-4-yl)sulfonyl]-4-(tetrahydrofuran-3-yl)-N-[3-(trifluoromethoxy)phenyl]pyrrolidin-3-amine]

SMILES | Ki
Cn1cnc(S(=O)(=O)N2C[C@@H](NCc3ccc(C(F)(F)F)cc3Cl)[C@H](C3CCCO3)C2)c1 (relative stereo) [Example 822, Trans-N-[2-chloro-4-(trifluoromethyl)benzyl]-1-[(1-methyl-1H-imidazol-4-yl)sulfonyl]-4-(tetrahydrofuran-2-yl)pyrrolidin-3-amine] | ≤ 1 µM
